Test results as given in patent publication US20250110113A1, “HUMAN ORGAN-ON-A-CHIP HAVING REVERSE MICRO-WEIR STRUCTURE AND USES THEREOF” (HUMANASE, priority 2022, published 2025).

What was measured:
Format in all cases: cell-based, human
[1] = system: liver cancer cells (HepG2); assay: Organ-on-a-chip containing liver cancer cells, doxorubicin treatment, optical microscope; conditions: 100 μM doxorubicin in media supply chamber; 24 hours after treatment; HepG2 cultured 2 days on chip; compared with control group
Method: As for one set of a media supply chamber and a media recovery chamber included in the organ-on-a-chip of the present invention fabricated in Example 1, 200 μl of media (Minimum Essential Media Eagle (MEM, high-glucose, Gibco) supplemented with 25 mM HEPES (4-(2-hydroxyethyl)-1-piperazineethanesulfonic acid, Gibco), 25 mM NaHCO3 (Sodium bicarbonate, Sigma-Aldrich), 10% (v/v) FBS, and P/S (100 Uml-1penicillin/100 Uml-1streptomycin, Sigma-Aldrich Co., MO)) was loaded in each of the chambers. The flow of media was connected between each chamber by using a pipette, and then the media was filled inside the media channel located at both sides to finally form the flow of media. Particularly, it was confirmed that a boundary of the media was formed between the media channel and the cell chamber due to surface tension, with the inverted micro-weir structure serving as a boundary. […]
After 100 μM doxorubicin was added to the media supply chamber of the organ-on-a-chip containing liver cancer cells (HepG2) fabricated in Example 2-3-1, a change of liver cancer cells in the organ-on-a-chip due to doxorubicin was observed using an optical microscope, and the degree of damage to the liver cancer cells was compared and analyzed with a control group (FIG. 8). […]

[2] = system: cervical cancer cells (HeLa); assay: Organ-on-a-chip containing cervical cancer cells, doxorubicin treatment, optical microscope; conditions: 100 μM doxorubicin in media supply chamber; 24 hours after treatment; HeLa cultured 2 days on chip; compared with control group
Method: (§1) As for one set of a media supply chamber and a media recovery chamber included in the organ-on-a-chip of the present invention fabricated in Example 1, 200 μl of media (Dulbecco Modified Eagle Medium (DMEM, Gibco) supplemented with 10% FBS) was loaded in each of the chambers. The flow of media was connected between each chamber by using a pipette, and then the media was filled inside the media channel located at both sides to finally form the flow of media. Particularly, it was confirmed that a boundary of the media was formed between the media channel and the cell chamber due to surface tension, with the inverted micro-weir structure serving as a boundary.
Then, 3×10^4 cervical cancer cells (HeLa) were injected into the cell inlet by using a pipette, and the injected cervical cancer cells (HeLa) were injected into the cell chamber by pipetting. […] Subsequently, the cells were cultured in a humidified incubator for 2 days under the conditions of 37° C. and 5% CO2.
After 100 μM doxorubicin was added to the media supply chamber of the organ-on-a-chip containing cervical cancer cells (HeLa) fabricated in Example 2-2-1, a change in cervical cancer cells in the organ-on-a-chip due to doxorubicin was observed using an optical microscope, and the degree of damage to the cervical cancer cells was compared and analyzed with a control group (FIG. 7). […]

[3] = system: breast cancer cells (MCF-7); assay: Organ-on-a-chip containing breast cancer cells, doxorubicin treatment, optical microscope; conditions: 100 μM doxorubicin in media supply chamber; 24 hours after treatment; MCF-7 cultured 2 days on chip; compared with control group
Method: as §1, with “(RPMI 1640 (Gibco)” for “(Dulbecco Modified Eagle Medium (DMEM, Gibco)”, “fetal bovine serum (FBS, Gibco))” for “FBS)”
Then, 3×10^4 breast cancer cells (Michigan Cancer Foundation-7, MCF-7) were injected into the cell inlet by using a pipette, and the injected breast cancer cells were injected into the cell chamber by pipetting. […] Subsequently, the cells were cultured in a humidified incubator for 2 days under the conditions of 37° C. and 5% CO2.
After 100 μM doxorubicin (TOCRIS) was added to the media supply chamber of the organ-on-a-chip containing breast cancer cells fabricated in Example 2-1-1, a change in breast cancer cells in the organ-on-a-chip due to doxorubicin was observed using an optical microscope, and the degree of damage to the breast cancer cells was compared and analyzed with a control group (FIG. 6). […]

COc1cccc2c1C(=O)c1c(O)c3c(c(O)c1C2=O)C[C@@](O)(C(=O)CO)C[C@@H]3O[C@H]1C[C@H](N)[C@H](O)[C@H](C)O1 [doxorubicin]
degree of damage to the liver cancer cells (cell death) [1]: most of the liver cancer cells cultured in the organ-on-a-chip were dead | degree of damage to the cervical cancer cells (cell death) [2]: most of the cervical cancer cells cultured in the organ-on-a-chip were dead | degree of damage to the breast cancer cells (cell death) [3]: most of the breast cancer cells cultured in the organ-on-a-chip were dead
